# Laboratory results from patent publication US20190337971A1, “PANTETHEINE DERIVATIVES FOR THE TREATMENT OF NEUROLOGIC DISORDERS” (Retrophin, Inc., priority 2016, published 2019).
# Like-named read-outs stand apart in the source and are kept apart here.
# How the values were obtained:
# [1] = Stability of compounds in mouse hepatocytes; format: in vitro ADME; details: cryopreserved mouse hepatocytes in suspension, 37° C., 0-240 min
# Method: Stability in hepatocytes for select compounds disclosed in the application was evaluated in two species (mouse and human) according to the following procedure. Compounds and positive control samples were dissolved in 100% DMSO at 5 mM. Cryopreserved hepatocytes were thawed and resuspended in Hepatocyte Basal Medium (HBM-Lonza CC-3199) supplemented with CC-4182 (complete hepatocyte culture medium). Test compounds were diluted into cell suspension (1 million cells/ml) from the stock solutions to have a test compound concentration of 5 μM (0.1% DMSO). Incubation was performed in 24-well plates, at 37° C. in a DUBNOFF water bath, under low shaking. Each compound was tested at 6 time points, in duplicates (0, 15, 30, 60, 120, and 240 min). At each time point, an aliquot of 120 μl was taken and transferred to a 96-well deep plate. The reaction was stopped with the addition of one volume of 100% acetonitrile plus 0.1% formic acid and the appropriate internal standard. Samples then were centrifuged at 1100×g for 30 min at +4° C. and supernatants were transferred to a new 96-deepwell plate. Samples were evaporated under N2 and reconstituted in H2O/ACN 0.1% formic Acid (98:2). Analysis was performed without a calibration curve (Acquity UPLC-Waters; Sciex API4000). Time 0 was obtained adding acetonitrile before addition of the test compound. Stability was determined based on analysis of disappearance of the compounds as a function of incubation time. Quantification of test compounds was measured as a peak area relative to an internal standard. The elimination constant, k, is calculated by plotting mean disappearance values on a semi-logarithmic scale and fitting with a best fit linear regression. The half-life (t1/2) expressed in hours was derived using Equation 1:
# t1/2=ln 2/(−k). Equation 1: […]
# PANK2−/− IMR32 cells = experiment: Coenzyme A assay in PANK2 silenced cells (LC-MS quantification of free CoA); format: cell-based, human; details: Homo sapiens, IMR-32; compound concentration 50 uM; fold increase in CoA levels relative to controls; treated twice, 24 h + 24 h
# [2] = Diastereoisomer A (upfield shift in 31P NMR), read-out: t1/2 (h) Mouse Hepatocytes Diastereoisomer A (converted)
# [3] = Diastereoisomer B, read-out: t1/2 (h) Mouse Hepatocytes Diastereoisomer B
"half-life at 5 μM [1, 2] [h]","half-life at 5 μM [1, 3] [h]",SMILES,fold induction at 50 µM (PANK2−/− IMR32 cells)
< 0.25,< 0.25,"CC(=O)SCCNC(=O)CCNC(=O)[C@@H]1OP(=O)(OCOC(=O)c2cc(C)nn2C)OCC1(C)C (stereo partly drawn) [R1007, (((4R)-4-((3-((2-(acetylthio)ethyl)amino)-3-oxopropyl)carbamoyl)-5,5-dimethyl-2-oxido-1,3,2-dioxaphosphinan-2-yl)oxy)methyl 1,3-dimethyl-1H-pyrazole-5-carboxylate]",109
0.31,< 0.25,"CC(=O)SCCNC(=O)CCNC(=O)[C@@H]1OP(=O)(OCOC(=O)c2scnc2C)OCC1(C)C (stereo partly drawn) [R1006, (((4R)-4-((3-((2-(acetylthio)ethyl)amino)-3-oxopropyl)carbamoyl)-5,5-dimethyl-2-oxido-1,3,2-dioxaphosphinan-2-yl)oxy)methyl 4-methylthiazole-5-carboxylate]",117
